Data from patent US20070037752A1, “Novel alanyl-amino peptidase inhibitors for functionally influencing different cells and treating immunological, inflammatory, neuronal, and other diseases” (priority 2003, published 2007).
Non-standard residues stand in square brackets, D forms with d. Residues, ends and D or L forms follow the SMILES beside them. *: point of attachment. OBn = c1ccc(CO*)cc1

target: alanyl aminopeptidases (APN) (Homo sapiens, UniProt P15144); experiment: Inhibition of alanyl aminopeptidase enzymatic activity, fluorogenic substrate (Ala)2-rhodamine 110; format: biochemical; conditions: Table 12; read-out: IC50APN
Procedure: The inhibition characteristics measured are referred to as IC-50 values or ID50 values (the latter marked with “*”) for said enzyme. The enzymatic activity was determined by means of the fluorogenic substrate/product (Ala)2-rhodamine 110.

Chain of alanyl aminopeptidases (APN) (P15144 whole entry, species assumed): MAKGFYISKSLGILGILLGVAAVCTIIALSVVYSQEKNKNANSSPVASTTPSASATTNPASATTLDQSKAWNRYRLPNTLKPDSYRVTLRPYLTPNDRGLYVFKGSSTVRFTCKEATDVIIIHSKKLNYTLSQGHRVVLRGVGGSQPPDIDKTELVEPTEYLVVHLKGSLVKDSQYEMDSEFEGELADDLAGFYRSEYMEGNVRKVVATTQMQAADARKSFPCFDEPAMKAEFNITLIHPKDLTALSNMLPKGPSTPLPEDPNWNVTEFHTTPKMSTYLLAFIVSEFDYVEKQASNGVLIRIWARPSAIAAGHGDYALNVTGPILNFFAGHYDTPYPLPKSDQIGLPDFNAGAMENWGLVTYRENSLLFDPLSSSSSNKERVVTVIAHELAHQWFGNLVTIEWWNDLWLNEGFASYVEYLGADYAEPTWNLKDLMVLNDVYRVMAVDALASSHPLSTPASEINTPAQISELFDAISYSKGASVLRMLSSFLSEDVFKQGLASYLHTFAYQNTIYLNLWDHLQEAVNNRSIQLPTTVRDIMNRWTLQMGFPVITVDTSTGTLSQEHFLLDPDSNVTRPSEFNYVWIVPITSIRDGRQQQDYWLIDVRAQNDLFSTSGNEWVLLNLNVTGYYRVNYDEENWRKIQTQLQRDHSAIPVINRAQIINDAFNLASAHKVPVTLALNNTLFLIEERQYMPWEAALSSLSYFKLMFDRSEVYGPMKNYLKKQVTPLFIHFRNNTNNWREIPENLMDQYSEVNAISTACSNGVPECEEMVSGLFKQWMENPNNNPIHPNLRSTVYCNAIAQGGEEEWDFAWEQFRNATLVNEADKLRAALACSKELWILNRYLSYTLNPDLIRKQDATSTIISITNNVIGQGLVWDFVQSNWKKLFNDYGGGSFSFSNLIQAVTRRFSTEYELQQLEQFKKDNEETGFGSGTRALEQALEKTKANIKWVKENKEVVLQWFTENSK

Row | Structure (SMILES) | IC50 [µM]
1 | COC(=O)c1ccc(-c2ccc(/C=C3\C(=O)N(CCCO)C(=O)C(C#N)=C3C)o2)cc1 [A12.005] | 5
2 | Cc1cc(Cl)ccc1OCCCC(=O)NO [A12.006] | 5.6
3 | COC(=O)c1cccc(-c2ccc(/C=C3\C(=O)N(CCO)C(=O)C(C#N)=C3C)o2)c1 [A12.007] | 6.3
4 | O=C(CCOC(c1ccccc1)c1ccc(Br)cc1)NO (stereo not drawn) [A12.008] | 6.3
5 | O=C(COc1ccc(Br)cc1)NO [A12.009] | 6.4
6 | CCc1cccc(CC)c1NC(=S)N/N=C1\C(=O)N(CN2CC(C)CC(C)C2)c2ccccc21 (stereo not drawn) [A12.010] | 6.7
7 | NCCCC[C@@H](N)C(=O)N[C@H](Cc1ccccc1)C(=O)N[C@H](Cc1ccc(O)cc1)C(=O)O [A12.011] (H-[dK]-[dF]-[dY]-OH) | 7.3
8 | CCOc1ccc(CC(=O)NO)cc1 [A12.013] | 7.5
9 | O=C(ON1C(=O)CCC1=O)C1CCC(=O)N1C(=O)OCc1ccccc1 (stereo not drawn) [A12.015] | 7.5
10 | CCC(C)C(NC(=O)C(N)CC(=O)OCc1ccccc1)C(=O)NC(Cc1ccccc1)C(=O)OC (stereo not drawn) [A12.016] (H-Asp(OBn)-Ile-Phe-OMe; configuration not given here) | 8.6
11 | C/C(=N/O)c1ccc2c(c1)OCCOCCOc1cc(/C(C)=N\O)ccc1OCCOCCO2 [A12.017] | 8.6
12 | Cc1ccc(C(=O)N/C(=C\c2ccco2)C(=O)N2CC3CC(C2)c2cccc(=O)n2C3)cc1 (stereo not drawn) [A12.019] | 11
13 | O=C(CS(=O)(=O)c1ccc(Cl)cc1)NO [A12.021] | 11.5
14 | CCCOC(=O)c1cc(-c2ccc(/C=C3\C(=O)N(CCCO)C(=O)C(C#N)=C3C)o2)ccc1Cl [A12.022] | 23.8
15 | CN(C)CCCN1CCN(c2nc(N(C)CC(=O)O)c3ncn(Cc4ccc([N+](=O)[O-])cc4)c3n2)CC1 [A12.023] | 11.8
16 | O=C(O)SCCC1NC(=S)N(c2ccccc2)C1=O (stereo not drawn) [A12.024] | 12
17 | CC(C)COc1ccc(C(=O)N/C(=C\c2ccco2)C(=O)N2CCOCC2)cc1 [A12.025] | 13.1
18 | COc1ccc(Cl)cc1NC(O)CCN1C(=O)C2C3C=CC(C3)C2C1O (stereo not drawn) [A12.026] | 13.4

Row | Structure (SMILES) | IC50 [µM]
19 | CSCCC1NC(=S)N(Cc2ccccc2)C1=O (stereo not drawn) [A12.027] | 14.1
20 | O=C(CCCCCN1C(=O)c2cccc3cccc(c23)C1=O)NO [A12.028] | 14.1
21 | Cc1ccc(C(OCCC(=O)NO)c2ccc(C)cc2)cc1 [A12.029] | 14.2
22 | CC1=C(C#N)C(=O)N(CCCO)C(=O)/C1=C\c1ccc(-c2ccc(Br)cc2)o1 [A12.030] | 16
23 | O=C(O)C1N=NC(c2ccc(F)cc2)=CN1O (stereo not drawn) [A12.031] | 17.1
24 | Cc1ccc(NC(=O)/C(=C\c2ccco2)NC(=O)c2ccccc2Cl)cc1 [A12.033] | 17.9
25 | CC(=O)c1cccc(-c2ccc(/C=C3/C(=O)N(CCCO)C(=O)C(C#N)=C3C)o2)c1 [A12.034] | 18.2
26 | O=C(N/C(=C\c1ccco1)C(=O)N1CCCC(CO)C1)c1ccccc1 (stereo not drawn) [A12.035] | 19
27 | CCOC(=O)C(NC(=O)c1ccccc1)(Nc1ccc(OC)cc1OC)C(F)(F)F (stereo not drawn) [A12.036] | 19
28 | COc1ccc(C[C@@H](N)C(=O)N[C@H]2[C@H](O)[C@H](n3cnc4c(N(C)C)ncnc43)O[C@@H]2CO)cc1 [A12.037] | 20.9
29 | O=C(N/C(=C\c1ccco1)C(=O)N1CCC(O)CC1)c1ccccc1 [A12.038] | 21.1
30 | NCC(O)CNCCc1ccccc1 (stereo not drawn) [A12.039] | 21.2
31 | CCOC(=O)C(NC(=O)c1cccc(Cl)c1)(Nc1ccc(OC)cc1OC)C(F)(F)F (stereo not drawn) [A12.040] | 21.7
32 | O=C(CCOC(c1ccc(F)cc1)c1ccc(F)cc1)NO [A12.041] | 21.8
33 | CN(C)CCCN1CCN(c2nc(N(C)CC(=O)O)c3ncn(Cc4ccc(C(F)(F)F)cc4)c3n2)CC1 [A12.042] | 23
34 | CC(CCc1ccccc1)C(=O)NO (stereo not drawn) [A12.044] | 25.2
35 | O=C(NC(Sc1ccncn1)C(=O)c1ccccc1)c1ccccc1 (stereo not drawn) [A12.045] | 26.9
36 | N#C/C(=C\c1ccc(N2Cc3ccccc3C2)cc1)C(=O)NCC1CCCO1 (stereo not drawn) [A12.047] | 28.1
